Where two headings read alike, the source gives them in different places.
Key:
[1] = test system: HCT116; assay: Trypan blue dye exclusion method on HCT116; assay type: cell-based, human; conditions: for IC50: 48 h, from percentages of viable cells, read-out: IC50 Trypan Blue Test HCT116
Experimental: (§1) Human CRC (HCT116 and HT-29) and PCa (DU145 and PC3) cell lines were purchased from the American Type Culture Collection (ATCC—LGC Standards, Molsheim, France). All cells were grown in RPMI 1640 medium supplemented with 10% FBS, 1% L-glutamine, 100 U/mL penicillin, and 100 μg/mL streptomycin. Cultures were maintained in a humidified atmosphere containing 5% CO2 at 37 °C. Cells were seeded in 75 cm^2 culture flasks at 1.2 × 10^4 cells/cm^2 for HCT116, DU145, and PC3 cells, and 2.0 × 10^4 for HT-29 cells. Cells were grown for 24 h in culture medium prior to exposure or not to obtain the synthesized compounds. Stock solutions (10^−2 M in DMSO) of each compound were diluted in culture medium to obtain appropriate final concentrations.
(§2) • (a) MTT assay: The antiproliferative effect of all compounds was determined using MTT assay (a metabolic activity test). Briefly, cells were seeded in 96-well culture plates at 4 × 10^3 cells/well for HCT116, PC3, and DU145 cells and 6 × 10^3 cells/well for HT-29 cells (100 µL/well), and grown for 24 h in culture medium prior to exposure or not to obtain compounds 1–15 with concentrations ranging from 5 nM to 50 μM. After 24 and 48 h of treatment, MTT (5 mg/mL in PBS) was added and incubated for another 3 h. MTT was then removed from the wells before adding 100 μL/well of DMSO. The optical density was detected with a microplate reader (Multiskan FC, Thermoscientific, Bordeaux, France) at 550 nm and cell viability was expressed as a percentage of each treatment condition compared to control cells. IC50 values were calculated for all compounds from the dose–response curve. Data are expressed as the arithmetic means ± standard error of the mean (SEM) of separate experiments. All experiments were performed at least in triplicate. • (b) Trypan blue dye exclusion method: Cells were grown for 24 h then treated with compounds 10 and 13 at indicated concentrations. After 48 h of treatment, cells were trypsinized and resuspended in complete medium. Each sample was mixed with Trypan blue solution (0.14% in HBSS, Invitrogen-GIBCO, ThermoFisher, Illkirch, France). Colored (non-viable) and dye-excluding (viable) cells were counted with the LUNA-II automated cell Counter (Logos Biosystems; MC2, Aubière, France). The control was normalized to 100% including viable and dead cells. The results indicated on the histograms were expressed as the percentage of cells compared to the control. IC50 values were determined from the percentages of viable cells compared to the control.

[2] = test system: PC3; assay: Trypan blue dye exclusion method on PC3; assay type: cell-based, human; conditions: for IC50: 48 h, from percentages of viable cells, read-out: IC50 Trypan Blue Test PC3
Experimental: as §1, §2

[3] = test system: caspase-3 and PARP in PC3 cells; assay: Western blot of apoptosis-related proteins in PC3; assay type: cell-based, human; conditions: PC3, 48 h;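 also: compared with untreated control cells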
Experimental: (§3) For total protein extraction, collected samples of each condition were washed in PBS. Then, the total cell pool was centrifuged at 200 g for 5 min at 4 °C and homogenized in RIPA lysis buffer (50 mM HEPES, pH 7.5, 150 mM NaCl, 1% sodium deoxycholate, 1% NP-40, 0.1% SDS, […] of aprotinin) containing protease inhibitors according to the manufacturer’s instructions. After quantification of protein levels using the Bradford method, proteins ([…]) were separated on 12.5% SDS-PAGE gels and transferred to PVDF membranes (GE Healthcare Life Science—Fisher Scientific). Membranes were probed with respective antibodies against human caspase-3, cleaved caspase-3, and PARP according to the manufacturer’s instructions. After incubation with appropriate secondary antibodies, blots were developed using the “ImmobilonWestern” substrate, following the manufacturer’s protocol, and G:BOX system (Syngene, Cambridge, UK). Membranes were then reblotted with human anti-β-actin used as a loading control.

[4] = test system: DU145; assay: Trypan blue dye exclusion method on DU145; assay type: cell-based, human; conditions: for IC50: 48 h, from percentages of viable cells, read-out: IC50 Trypan Blue Test DU145
Experimental: as §1, §2

[5] = test system: caspase-3 and PARP in HCT116 cells; assay: Western blot of apoptosis-related proteins in HCT116; assay type: cell-based, human; conditions: HCT116, 48 h;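 also: compared with untreated control cells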
Experimental: as §3

[6] = test system: caspase-3 and PARP in HT-29 cells; assay: Western blot of apoptosis-related proteins in HT-29; assay type: cell-based, human; conditions: HT-29, 48 h;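 also: compared with untreated control cells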
Experimental: as §3

[7] = test system: HT-29; assay: Trypan blue dye exclusion method on HT-29; assay type: cell-based, human; conditions: for IC50: HT-29, 48 h, from percentages of viable cells, read-out: IC50 Trypan Blue Test HT-29
Experimental: as §1, §2

[8] = test system: HT-29; assay: MTT assay, antiproliferative effect on HT-29; assay type: cell-based, human; conditions: Homo sapiens
Experimental: as §1, §2

[9] = test system: human CRC (HCT116 and HT-29) and human PCa (DU145 and PC3) cell lines; assay: MTT assay, summary statements over the cell lines; assay type: cell-based
Experimental: as §1, §2

[10] = test system: DU145; assay: MTT assay, antiproliferative effect on DU145; assay type: cell-based; conditions: Homo sapiens
Experimental: as §1, §2

[11] = test system: HCT116; assay: MTT assay, antiproliferative effect on HCT116; assay type: cell-based; conditions: Homo sapiens
Experimental: as §1, §2

[12] = test system: PC3; assay: MTT assay, antiproliferative effect on PC3; assay type: cell-based; conditions: Homo sapiens
Experimental: as §1, §2

[13] = HT-29, 24 h, 24 h, read-out: IC50 HT-29 24 h
[14] = HT-29, 48 h, 48 h, read-out: IC50 HT-29 48 h
[15] = DU-145, 24 h, read-out: IC50 DU145 24 h
[16] = DU-145, 48 h, read-out: IC50 DU145 48 h
[17] = HCT-116, 24 h, read-out: IC50 HCT116 24 h
[18] = HCT-116, 48 h, read-out: IC50 HCT116 48 h
[19] = PC-3, 24 h, read-out: IC50 PC3 24 h
[20] = PC-3, 48 h, read-out: IC50 PC3 48 h

COc1cc(C(=O)/C=C/c2c[nH]c3ccccc23)cc(OC)c1OC [chalcone 10, (E)-3-(1H-indol-3-yl)-1-(3,4,5-trimethoxyphenyl)prop-2-en-1-one]
Dead cells ([1]; HCT116, 48 h, 0.050 µM): 6.76% | Dead cells ([1]; HCT116, 48 h, 0.100 µM): 0.85% | IC50 ([1]; Homo sapiens, HCT-116): 43 nM | viability at 0.01 µM ([1]; Homo sapiens, HCT-116, HCT116, 48 h, 0.010 µM, percentage of cells compared to control, read-out: Viable cells): 97.7% | viability at 0.05 µM ([1]; Homo sapiens, HCT-116, HCT116, 48 h, 0.050 µM, read-out: Viable cells): 43.2% | viability at 0.1 µM ([1]; Homo sapiens, HCT-116, HCT116, 48 h, 0.100 µM, read-out: Viable cells): 17.4% | IC50 ([2]; Homo sapiens, PC-3): 32 nM | viability at 0.01 µM ([2]; Homo sapiens, PC-3, PC3, 48 h, 0.010 µM, read-out: Viable cells): 91.9% | viability at 0.05 µM ([2]; Homo sapiens, PC-3, PC3, 48 h, 0.050 µM, read-out: Viable cells): 31.3% | viability at 0.1 µM ([2]; Homo sapiens, PC-3, PC3, 48 h, 0.100 µM, read-out: Viable cells): 16.5% | Dead cells ([2]; PC3, 48 h, 0.010 µM): 9.33% | Dead cells ([2]; PC3, 48 h, 0.100 µM): 4.44% | PARP cleavage (89 kDa fragment) [3]: induced PARP cleavage | cleaved caspase-3 [3]: clearly observed | native PARP expression [3]: strong decreased expression | pro-caspase-3 expression [3]: decreased | Dead cells ([4]; DU145, 48 h, 0.010 µM): 2.21% | Dead cells ([4]; DU145, 48 h, 0.050 µM): 3.40% | Dead cells ([4]; DU145, 48 h, 0.100 µM): 5.30% | IC50 ([4]; Homo sapiens, DU-145): 40 nM | viability at 0.01 µM ([4]; Homo sapiens, DU-145, DU145, 48 h, 0.010 µM, read-out: Viable cells): 88.9% | viability at 0.05 µM ([4]; Homo sapiens, DU-145, DU145, 48 h, 0.050 µM, read-out: Viable cells): 40.6% | viability at 0.1 µM ([4]; Homo sapiens, DU-145, DU145, 48 h, 0.100 µM, read-out: Viable cells): 18.4% | PARP cleavage (89 kDa fragment) [5]: induced PARP cleavage | cleaved caspase-3 [5]: clearly observed | native PARP expression [5]: strong decreased expression | pro-caspase-3 expression [5]: decreased | PARP cleavage (89 kDa fragment) [6]: induced PARP cleavage | cleaved caspase-3 [6]: more weakly produced | native PARP expression [6]: strong decreased expression | pro-caspase-3 expression [6]: decreased | Dead cells ([7]; HT-29, 48 h, 0.010 µM): 3.78% | Dead cells ([7]; HT-29, 48 h, 0.050 µM): 3.36% | Dead cells ([7]; HT-29, 48 h, 0.100 µM): 1.68% | IC50 ([7]; Homo sapiens): 21 nM | viability at 0.01 µM ([7]; Homo sapiens, HT-29, 48 h, 0.010 µM, read-out: Viable cells): 76.2% | viability at 0.05 µM ([7]; Homo sapiens, HT-29, 48 h, 0.050 µM, read-out: Viable cells): 15.9% | viability at 0.1 µM ([7]; Homo sapiens, HT-29, 48 h, 0.100 µM, read-out: Viable cells): 10.7% | IC50 [8, 13]: 41 ± 1 nM | IC50 [8, 14]: 28 ± 1 nM | IC50 ([9]; 48 h, read-out: IC50 towards the selected cell lines): < 40 nM | IC50 ([9]; Homo sapiens, 48 h, read-out: IC50 towards the selected cell lines): < 50 nM | IC50 [10, 15]: 51 ± 6 nM | IC50 [10, 16]: 20 ± 2 nM | IC50 [11, 17]: 282 ± 12 nM | IC50 [11, 18]: 39 ± 1 nM | IC50 [12, 19]: 44 ± 6 nM | IC50 [12, 20]: 17 ± 5 nM

COc1cc(C(=O)/C=C/c2coc3ccc(C)cc3c2=O)cc(OC)c1OC [chalcone 13, (E)-6-methyl-3-(3-oxo-3-(3,4,5-trimethoxyphenyl)prop-1-en-1-yl)-4H-chromen-4-one]
Dead cells ([1]; HCT116, 48 h, 2.5 µM): 5.46% | Dead cells ([1]; HCT116, 48 h, 5 µM): 11.11% | Dead cells ([1]; HCT116, 48 h, 7.5 µM): 10.46% | IC50 ([1]; Homo sapiens, HCT-116): 3480 nM | viability at 2.5 µM ([1]; Homo sapiens, HCT-116, HCT116, 48 h, 2.5 µM, read-out: Viable cells): 74.1% | viability at 5 µM ([1]; Homo sapiens, HCT-116, HCT116, 48 h, 5 µM, read-out: Viable cells): 19.6% | viability at 7.5 µM ([1]; Homo sapiens, HCT-116, HCT116, 48 h, 7.5 µM, read-out: Viable cells): 10.1% | IC50 ([2]; Homo sapiens, PC-3): 5330 nM | viability at 2.5 µM ([2]; Homo sapiens, PC-3, PC3, 48 h, 2.5 µM, read-out: Viable cells): 92.8% | viability at 5 µM ([2]; Homo sapiens, PC-3, PC3, 48 h, 5 µM, read-out: Viable cells): 54.3% | viability at 7.5 µM ([2]; Homo sapiens, PC-3, PC3, 48 h, 7.5 µM, read-out: Viable cells): 15.4% | Dead cells ([2]; PC3, 48 h, 2.5 µM): 9.51% | Dead cells ([2]; PC3, 48 h, 5 µM): 6.14% | Dead cells ([2]; PC3, 48 h, 7.5 µM): 4.23% | PARP cleavage (89 kDa fragment) [3]: clearly observed | cleaved caspase-3 [3]: clearly observed | native PARP expression [3]: strong decreased expression | pro-caspase-3 expression [3]: decreased | Dead cells ([4]; DU145, 48 h, 2.5 µM): 3.24% | Dead cells ([4]; DU145, 48 h, 5 µM): 8.67% | Dead cells ([4]; DU145, 48 h, 7.5 µM): 6.49% | IC50 ([4]; Homo sapiens, DU-145): 3980 nM | viability at 2.5 µM ([4]; Homo sapiens, DU-145, DU145, 48 h, 2.5 µM, read-out: Viable cells): 84.6% | viability at 5 µM ([4]; Homo sapiens, DU-145, DU145, 48 h, 5 µM, read-out: Viable cells): 29.3% | viability at 7.5 µM ([4]; Homo sapiens, DU-145, DU145, 48 h, 7.5 µM, read-out: Viable cells): 12.8% | cleaved caspase-3 [5]: clearly observed | native PARP expression [5]: strong decreased expression | pro-caspase-3 expression [5]: decreased | PARP cleavage (89 kDa fragment) [6]: clearly observed | cleaved caspase-3 [6]: clearly observed | native PARP expression [6]: strong decreased expression | pro-caspase-3 expression [6]: decreased | Dead cells ([7]; HT-29, 48 h, 2.5 µM): 5.48% | Dead cells ([7]; HT-29, 48 h, 7.5 µM): 9.04% | IC50 ([7]; Homo sapiens): 4050 nM | viability at 2.5 µM ([7]; Homo sapiens, HT-29, 48 h, 2.5 µM, read-out: Viable cells): 72.2% | viability at 5 µM ([7]; Homo sapiens, HT-29, 48 h, 5 µM, read-out: Viable cells): 37.6% | viability at 7.5 µM ([7]; Homo sapiens, HT-29, 48 h, 7.5 µM, read-out: Viable cells): 18.5% | IC50 [8, 13]: 3880 ± 80 nM | IC50 [8, 14]: 3100 ± 170 nM | IC50 ([9]; Homo sapiens, 48 h, read-out: IC50 over the four cell lines): 2600 to 5100 nM | viability at 10 µM ([9]; Homo sapiens, 48 h, from the concentration of 10 µM, whole cell lines): < 10% | activity relative to chalcone 12 ([9]; comparison of IC50 values): four times more active | IC50 [10, 15]: 3920 ± 240 nM | IC50 [10, 16]: 3310 ± 90 nM | IC50 [11, 17]: 2860 ± 200 nM | IC50 [11, 18]: 2590 ± 120 nM | IC50 [12, 19]: 5180 ± 390 nM | IC50 [12, 20]: 5130 ± 250 nM
